Experiment: plasma protein binding (rapid equilibrium dialysis), mouse
Assay type: in vitro ADME
Settings: pH 7.4
Protocol: 3. Aqueous t herm odynam ic solu bili ty
The thermodynamic solubility of 3f was determined by addition of Phosphate Buffered Saline (PBS) at pH 7. 4 to an exces s of solid compound.
The assay was performed by incubation of an aliquot of 2. 5mg of test compound in 500µL of PBS at pH 7. 4. The suspension was shaken at 300 RPM for 24h at 25°C. At the end of the incubation period, the saturated solution was filtered and analyzed by UPLC/MS for the quantification of dissolved compound (in µM) by UV at a specific wavelength ( λmax of the test compound). The analyses were performed on a Waters ACQUITY UPLC/MS SQD system equipped with an ESI ion source. The analyses were run on an ACQUITY UPLC BEH C 18 column (50x2. 1mmI D, particle size 1. 7µm) with a VanGuard BEH C 18 pr e-column (5x2. 1mmID, particle size 1. 7µm), using H 2O + 0. 1% HCOOH (A) and CH 3CN + 0. 1% HCOOH (B) as mobile phase.
4. Plasm a Protei n Bindi ng
The assay was conducted in triplicate in human and mouse plasma. An appropriate volume of plasma was spiked with a known amount of 10mM DMSO stock solution of the test compound, thus reaching the incubation concentrations of 0. 5, 1 and 5 µM. […] At this point, the supernatants were ready for injections in the UPLC -MS/ MS system. […] Plasma protein binding was calculated applying appropriate corrections to compensate for dilutions during sampling.

For `O=C(Nc1cccc(OC(F)(F)F)c1)c1c(O)n(-c2ccccc2)c(=S)n(-c2ccccc2)c1=O` [3f, 6-Hydroxy-4-oxo-1,3-diphenyl-2-thioxo-N-(3-(trifluoromethoxy)phenyl)-1,2,3,4-tetrahydropyrimidine-5-carboxamide], the fraction unbound at 3 h was under 0.01.
